# Source: article PMC8012331, “Drug-induced hepatic steatosis in absence of severe mitochondrial dysfunction in HepaRG cells: proof of multiple mechanism-based toxicity” (Cell Biology and Toxicology, 2020)
# Experiments:
# HepaRG cells [1] = assay: Neutral lipids with Nile red in HepaRG cells; conditions: 4 days
# Procedure: Briefly, HepaRG cells were seeded in 96-well plates at a density of 2.6 × 10^4 cells/cm^2 and were first incubated in William’s E medium supplemented with 10% FBS (50% FBS from Eurobio and 50% FBS from GE Healthcare), 100 U/mL penicillin, 100 μg/mL streptomycin, 2 mM glutamine, 5 μg/mL insulin, and 50 μM hydrocortisone hemisuccinate. […] During this 1-month period, the culture medium was renewed three times a week. […] HepaRG cells were next cultured in the same FBS/DMSO conditions and incubated for 4 days with each drug at different concentrations. Culture medium was renewed every day and all investigations were performed after 96 h (i.e., 24 h after the fourth treatment). These investigations were mostly performed in 96-well plates except for western blot analysis, for which 6-well plates were used. Experiments were carried out on passages 9 to 16. All drugs (except DPEN), etomoxir, lomitapide, tunicamycin, thapsigargin, and TUDCA were dissolved in DMSO. DPEN was dissolved in water.
# Cells were then incubated with PBS containing 0.1 μg/mL Nile red for 30 min and washed once. […] For each well, four pictures were taken at a magnification of × 20 and analyzed with Columbus software (PerkinElmer) for quantification. These pictures were always taken in four different areas around the center of each well, and these areas were the same from one well to another, as programmed by the Columbus software. This software was also designed to count only living cells after exclusion of dying cells harboring nuclei with abnormal shape or altered Hoechst intensity. […] Neutral lipids were then normalized per number of nuclei and expressed relative to control cells. Examples of images used for neutral lipid quantification are shown in Supplementary Fig. 2.
# apoB secretion = assay: apoB level in culture medium (ELISA), HepaRG cells; assay type: cell-based, human; conditions: 4 days; for Effect on apoB secretion: culture medium, vs control
# Procedure: (§1) Experiments were carried out on passages 9 to 16. […] DPEN was dissolved in water.
# Twenty-four hours after the last treatment, cell supernatants were removed and stored at − 80 °C until use for apolipoprotein measurement. ApoB level was measured using the Human Apolipoprotein B ELISA^pro kit from Mabtech (Nacka Strand, Sweden), according to the manufacturer’s instructions. Briefly, 50 μL of samples were diluted 2× in Apo ELISA buffer before a 2-h incubation in the precoated strip plates provided in the kit. The plates were washed and incubated 1 h with the biotinylated monoclonal anti-human apoB (LDL-11-biotin) antibody. The plates were then washed and incubated 1 h with a streptavidin–horseradish peroxidase conjugated antibody. After another washing, 3,3′,5,5′-tetramethylbenzidine (TMB) was used as substrate for 15 min before adding a stop solution. Absorbance at 450 nm was then measured using a POLARstar Omega microplate reader (BMG Labtech, Ortenberg). ApoB level was calculated utilizing a four-parameter standard curve, and normalized to the total cellular protein content and expressed in comparison to control cells.
# apolipoprotein B (APOB) = assay: RT-qPCR APOB mRNA in HepaRG cells; assay type: cell-based, human; conditions: 4 days
# Procedure: (§2) Total RNA was extracted with the Nucleospin RNA isolation system purchased from Macherey-Nagel (Düren, Germany), which included a DNase treatment step. Quantification of isolated RNAs was assessed using a Nanodrop 1000 (Thermo Fisher Scientific, Waltham, MA). RNAs were reverse-transcribed into cDNAs using the High-Capacity cDNA Reverse Transcription Kit purchased from Applied Biosystems (Woolston, UK). Gene expression was assessed by real-time quantitative PCR analysis (RT-qPCR) using SYBR Green PCR Master Mix (Applied Biosystems) and a 384-well QuantStudio™ 7 Flex Real-Time PCR System (Thermo Fisher Scientific). Sequences of the primers used to measure gene expression are presented in Supplementary Table 3. Expression of GAPDH was chosen as reference and the 2^−ΔΔCt calculation method was used to express the relative expression of each selected gene.
# HepaRG cells [2] = assay: Number of nuclei (Hoechst 33342) in HepaRG cells; assay type: cell-based, human; conditions: HepaRG cells treated with TUDCA alone
# [3] = tested on: de novo lipogenesis (DNL); assay: DNL from [2-14C]acetic acid in HepaRG cells; assay type: cell-based, human; conditions: 4 days, vs control
# Procedure: as §1
# DNL was assessed by measuring newly synthesized radiolabeled lipids from [2-^14C]acetic acid, using a protocol adapted from Byrne et al. ([2014]). Briefly, culture medium was removed and cells were washed with warm PBS. Next, cells were incubated for 3 h with phenol red-free William’s E medium containing 1% fatty acid-free BSA, [2-^14C]acetic acid (1850 Bq per well, corresponding to 19.4 pM) and 50 μM cold acetic acid. Medium was then gently removed and cells were washed with warm PBS before adding a mix of hexane/isopropanol (3:2; v/v). Cell culture plates were sealed and incubated for 1 h at room temperature for lipid extraction. After transfer of the plate content in 200-μL microtubes, hexane and PBS were added to have a hexane/isopropanol/PBS ratio of 6:2:3 (v/v/v). Microtubes were then centrifuged at 1000×g for 5 min and radiolabeled lipids were counted in the upper phase with a Tri-Carb 4910TR liquid scintillation counter (PerkinElmer). Results were normalized to total protein content and expressed in comparison to control cells.
# [4] = tested on: angiopoietin-like 3 (ANGPTL3); assay: RT-qPCR ANGPTL3 mRNA in HepaRG cells; assay type: cell-based, human; conditions: 4 days, vs control
# Procedure: as §2
# [5] = tested on: microsomal triglyceride transfer protein (MTTP); assay: RT-qPCR MTTP mRNA in HepaRG cells; assay type: cell-based, human; conditions: 4 days, vs control
# Procedure: as §2
# ERN1 (IRE1α) = assay: RT-qPCR ERN1 mRNA in HepaRG cells; assay type: cell-based, human; conditions: 4 days, vs control
# Procedure: as §2
# [6] = tested on: apolipoprotein C3 (APOC3); assay: RT-qPCR APOC3 mRNA in HepaRG cells; assay type: cell-based, human; conditions: 4 days, vs control
# Procedure: as §2
# [7] = tested on: mitochondrial fatty acid oxidation (mtFAO); assay: mtFAO with [U-14C]palmitic acid in HepaRG cells; assay type: cell-based, human; conditions: 4 days, vs control
# Procedure: as §1
# Results were normalized to total protein content determined using the Pierce BCA assay kit from Thermo Fischer Scientific (Waltham, MA). Results were expressed in comparison to control cells.
# HSPA5 (BIP) = assay: RT-qPCR HSPA5 mRNA in HepaRG cells; assay type: cell-based, human; conditions: 4 days, vs control
# Procedure: as §2
# [8] = tested on: prolyl 4-hydroxylase subunit beta (P4HB, also known as PDI); assay: RT-qPCR P4HB mRNA in HepaRG cells; assay type: cell-based, human; conditions: 4 days, vs control
# Procedure: as §2
# DDIT3 (CHOP) = assay: RT-qPCR DDIT3 mRNA in HepaRG cells; assay type: cell-based, human; conditions: 4 days, vs control
# Procedure: as §2
# [9] = TUDCA 2 or 4 mM with 750 μM ALLO, 300 μM INDO, 300 μM RIF or 10 μM tunicamycin
Molecule,"Effect on neutral lipid accumulation induced by ALLO, INDO, RIF or tunicamycin (HepaRG cells [1]; [9])","Effect on apoB secretion in cells cotreated with ALLO, INDO, RIF or tunicamycin (apoB secretion; [9])","Effect on APOB mRNA level in cells cotreated with ALLO, INDO, RIF or tunicamycin (apolipoprotein B (APOB); [9])",Increase in the number of nuclei (HepaRG cells [2]),Effect on DNL [3],ANGPTL3 mRNA level [4],Effect on apoB secretion (apoB secretion),APOB mRNA level (apolipoprotein B (APOB); vs control),MTTP mRNA level [5],ERN1 (IRE1α) mRNA level (ERN1 (IRE1α)),APOC3 mRNA level [6],Effect on mtFAO [7],HSPA5 (BIP) mRNA level (HSPA5 (BIP)),P4HB (PDI) mRNA level [8],DDIT3 (CHOP) mRNA level (DDIT3 (CHOP)),"Accumulation of neutral lipids (steatosis) (HepaRG cells [1]; selected concentrations (ATP loss < 30%, not above 100 × Cmax), vs control)"
"C[C@H](CCC(=O)NCCS(=O)(=O)O)[C@H]1CC[C@H]2[C@@H]3[C@@H](O)C[C@@H]4C[C@H](O)CC[C@]4(C)[C@H]3CC[C@]12C [TUDCA, tauroursodeoxycholic acid]",alleviate neutral lipid accumulation,improved apoB secretion,higher apoB mRNA level,38%,,,,,,,,,,,,
C/C=C(/C)C(=O)O[C@H]1C(C)=C2[C@H]([C@@H]1OC(=O)CCCCCCC)[C@@](C)(OC(C)=O)C[C@H](OC(=O)CCC)[C@@]1(O)[C@H]2OC(=O)[C@@]1(C)O [thapsigargin],,,,,strongly reduced DNL,reduced the mRNA level,reduced secretion of apoB,also reduced APOB mRNA abundance,reduced the mRNA level,augmented the mRNA level,reduced the mRNA level,increased mtFAO,augmented the mRNA level,induced,augmented the mRNA level,
tunicamycin,,,,,strongly reduced DNL,reduced the mRNA level,reduced secretion of apoB,,reduced the mRNA level,augmented the mRNA level,reduced the mRNA level,increased mtFAO,augmented the mRNA level,induced,augmented the mRNA level,increased neutral lipids
